Results as given in PubChem BioAssay (NCI).
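GI50 = concentration required for 50% inhibition of growth. TGI: total growth inhibition.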

Key:
Test in all cases: NCI tumour cell line growth inhibition, 384-well format
[1] = tested on: SN12C renal
[2] = tested on: SNB-19 CNS
[3] = tested on: ACHN renal
[4] = tested on: K-562 leukemia
[5] = tested on: T-47D breast
[6] = tested on: NCI-H522 lung
[7] = tested on: OVCAR-8 ovarian
[8] = tested on: KM12 colon
[9] = tested on: NCI-H23 lung
[10] = tested on: SK-OV-3 ovarian
[11] = tested on: M14 melanoma
[12] = tested on: SF-295 CNS
[13] = tested on: HCT-116 colon
[14] = tested on: BT-549 breast
[15] = tested on: RXF 393 renal
[16] = tested on: CAKI-1 renal
[17] = tested on: MDA-MB-435 melanoma
[18] = tested on: NCI/ADR-RES ovarian
[19] = tested on: SK-MEL-5 melanoma
[20] = tested on: HL-60(TB) leukemia
[21] = tested on: HOP-92 NSCLC
[22] = tested on: OVCAR-5 ovarian
[23] = tested on: MALME-3M melanoma
[24] = tested on: EKVX NSCLC
[25] = tested on: A549 NSCLC
[26] = tested on: UACC-257 melanoma
[27] = tested on: SK-MEL-28 melanoma
[28] = tested on: SR leukemia
[29] = tested on: PC-3 prostate
[30] = tested on: HCT-15 colon
[31] = tested on: NCI-H226 lung
[32] = tested on: HS 578T breast
[33] = tested on: MOLT-4 leukemia
[34] = tested on: MDA-MB-468 breast
[35] = tested on: SNB-75 CNS
[36] = tested on: IGROV1 ovarian
[37] = tested on: COLO 205 colon
[38] = tested on: SK-MEL-2 melanoma
[39] = tested on: SF-539 CNS
[40] = tested on: 786-0 renal
[41] = tested on: MCF7 breast
[42] = tested on: HT29 colon
[43] = tested on: OVCAR-4 ovarian
[44] = tested on: RPMI-8226 leukemia
[45] = tested on: SW-620 colon
[46] = tested on: NCI-H460 NSCLC
[47] = tested on: SF-268 CNS

## CCN(CC)CCNC(=O)c1c(C)[nH]c(/C=C2\C(=O)Nc3ccc(F)cc32)c1C
[1]
  GI50: 0.931 µM
  TGI: 10.4 µM
[2]
  GI50: 6.08 µM
  TGI: 13.7 µM
[3]
  GI50: 1.3 µM
  TGI: 3.06 µM
[4]
  GI50: 1.35 µM
  TGI: 2.66 µM
[5]
  GI50: 4.24 µM
  TGI: 8.33 µM
[6]
  GI50: 2.22 µM
  TGI: 6.49 µM
[7]
  GI50: 2.35 µM
  TGI: 6.18 µM
[8]
  GI50: 0.0426 µM
  TGI: 4.7 µM
[9]
  GI50: 1.91 µM
  TGI: 4.64 µM
[10]
  GI50: 1.04 µM
  TGI: 5.7 µM
[11]
  GI50: 0.911 µM
  TGI: 2.15 µM
[12]
  GI50: 5.25 µM
  TGI: 9.62 µM
[13]
  GI50: 1.28 µM
  TGI: 2.62 µM
[14]
  GI50: 1.58 µM
  TGI: 2.98 µM
[15]
  GI50: 1.88 µM
  TGI: 3.53 µM
[16]
  GI50: 0.748 µM
  TGI: 2.06 µM
[17]
  GI50: 2.45 µM
  TGI: 6.53 µM
[18]
  GI50: 2.56 µM
  TGI: 6.16 µM
[19]
  GI50: 1.24 µM
  TGI: 2.5 µM
[20]
  GI50: 0.892 µM
  TGI: 2.13 µM
[21]
  GI50: 1.62 µM
  TGI: 4.86 µM
[22]
  GI50: 2.67 µM
  TGI: 11.2 µM
[23]
  GI50: 1.17 µM
  TGI: 2.41 µM
[24]
  GI50: 3.12 µM
  TGI: 9.47 µM
[25]
  GI50: 2.58 µM
  TGI: 6.97 µM
[26]
  GI50: 1.71 µM
  TGI: 3.1 µM
[27]
  GI50: 1.66 µM
  TGI: 3.13 µM
[28]
  GI50: 1.81 µM
  TGI: 3.24 µM
[29]
  GI50: 2.27 µM
  TGI: 7.54 µM
[30]
  GI50: 1.19 µM
  TGI: 3.6 µM
[31]
  GI50: 1.61 µM
  TGI: 4.48 µM
[32]
  GI50: 1.86 µM
  TGI: 3.73 µM
[33]
  GI50: 1.03 µM
  TGI: 2.28 µM
[34]
  GI50: 2.94 µM
  TGI: 5.41 µM
[35]
  GI50: 3.67 µM
  TGI: 8.24 µM
[36]
  GI50: 1.14 µM
  TGI: 5.97 µM
[37]
  GI50: 3.18 µM
  TGI: 7.89 µM
[38]
  GI50: 1.29 µM
  TGI: 2.57 µM
[39]
  GI50: 1.28 µM
  TGI: 2.61 µM
[40]
  GI50: 1.62 µM
  TGI: 3.11 µM
[41]
  GI50: 1.36 µM
  TGI: 3.8 µM
[42]
  GI50: 1.48 µM
  TGI: 2.85 µM
[43]
  GI50: 3.93 µM
  TGI: 8.44 µM
[44]
  GI50: 1.38 µM
  TGI: 2.78 µM
[45]
  GI50: 1.7 µM
  TGI: 4.29 µM
[46]
  GI50: 1.79 µM
  TGI: 5.73 µM
[47]
  GI50: 4.23 µM
  TGI: 13.1 µM
